Tested on: calcium-induced arrhythmias in rats
Experiment: Calcium-induced arrhythmias (CaCl2 injected i.v. into anesthetized rats)
Source text: The experimental method used was that described in Lynch J. J., Rahwan R. G., Witiak D. T.: Effects of 2-substituted-3-dimethylamino-5,6-methylenedioxyindenes on calcium-inducedarrhythmias, J. Cardiovasc. Pharmacol. 3: 49-60 (1981). Male Sprague-Dawley rats weighing 180-250 grams were anesthetized with sodium pentobarbital and a cannula was inserted into the left jugular vein for drug administration. Electrocardiograph equipment was connected to the rat and the lead II was continuously monitored. The compound under test, dissolved in 5% dextrose solution, was administered into the jugular vein of anesthetized rats over a 40 second period. Ten minutes after this treatment, an acute dose of 1 ml/kg of a 10% CaCl2.2H2 O solution was injected into the jugular vein over a period of 10 seconds. The arrhythmias resulting from the calcium administration were graded according to the following criteria: (a) initial change in heart rate following calcium administration; (b) incidences of sinoatrial block, atrioventricular block, ectopic beats, and ventricular flutter and fibrillation; (c) time required for reversion to control ECG; and (d) incidence of mortality.

## CCCCC1=Cc2cc3c(cc2C1[N+](C)(C)C)OCO3.[I-] (centres unmarked) [Q-bu-MDI, 2-Butyl-5,6-methylenedioxyindene-1-trimethylammonium iodide]
0.5 mg/kg, i.v.
  mortality rate: zero
  protection against arrhythmia: almost complete protection
  protection against calcium-induced mortality: complete protection against calcium-induced mortality
  protection against the calcium-induced bradycardia: partial protection
  time for reversion to a normal electrocardiogram: significantly reduced
calcium-induced arrhythmias
  effectiveness in suppressing arrhythmias relative to pr-MDI and bu-MDI: 7-8 times
i.v., 10 min before CaCl2
  concentration effective against calcium-induced arrhythmias: 0.5 mg/kg
i.v., Q-bu-MDI at 0.5 mg/kg, pr-MDI and bu-MDI at 3.75 mg/kg
  deleterious side effects: no substantial deleterious side effects
